From patent US20080248030A1, “Method of Treating Angiogenic Diseases” (Children's Medical Center Corporation, priority 2005, published 2008)

Experiments:
BCE cells = test: Bovine capillary endothelial (BCE) cell proliferation assay; format: cell-based; conditions: 10 pg/ml to 1 μg/ml TNP-470-equivalent concentration, 72 h
Method: For the proliferation assay, cells were washed with PBS and dispersed in a 0.05% trypsin solution. Cells were suspended (15,000 cells/ml) in DMEM supplemented with 10% BCS and 1% GPS, plated onto gelatinized 24-well culture plates (0.5 ml/well), and incubated for 24 h (37° C., 10% CO2). The media was replaced with 0.25 ml of DMEM, 5% BCS and 1% GPS and the test sample applied. Cells were challenged with free or conjugated TNP-470 (10 pg/ml to 1 μg/ml TNP-470-equivalent concentration). After 30 min of incubation, media and bFGF were added to obtain a final volume of 0.5 ml of DMEM, 5% BCS, 1% GPS and 1 ng/ml bFGF. Control cells were grown with or without bFGF. After 72 hr, cells were dispersed in trypsin, resuspended in Hematall (Fisher Scientific, Pittsburgh, Pa.), and counted in a Coulter counter.

LLC = test: Antitumor activity on C57BL/6J mice bearing s.c. LLC; conditions: 30 mg/kg q.o.d., data not shown
chick aortic ring = test: Chick aortic ring endothelial sprouting assay; format: cell-based; conditions: for effect on outgrowth: 100 pg/ml
Method: Aortic arches were dissected from day-14 chick embryos, cut into cross-sectional fragments, and implanted in vitro in Matrigel using a modification of methods previously described (V. Muthulckaruppan, personal communication). When cultured in MCDB-131 medium supplemented with 5% fetal bovine serum, endothelial cells sprouted and vascular channel formation occurred within 24-48 hours. Free or conjugated TNP-470 (10 pg/ml to 1 μg/ml) was added to the culture.

VEGFR-2 = conditions: recently shown; cited from earlier work
Early mouse development = conditions: injected into 7 and 17 day-old BALB/c mice
Method: Free and conjugated TNP-470 were injected into 7 and 17 day-old BALB/c mice in order to test their effects on normal development.

[1] = human, in vivo; cited from earlier work
human melanoma (A2058) = format: in vivo; conditions: Caplostatin 30 mg/kg s.c. q.o.d; Avastin 1 mg/kg i.p. twice/week
Method: Combination treatment was also tested on mice bearing s.c. A2058 human melanoma, PC-3M-LN4 human prostate carcinoma or COLO-205 colon carcinoma or orthotopic intracranial U87-luciferase human glioblastoma.

A2058 human melanoma = test: Antitumor activity on SCID mice bearing s.c. A2058 human melanoma; format: in vivo; conditions: summary in conclusions, tumor models not named
Text: Each group consisted of 5 mice.

[2] = test system: liver regeneration post hepatectomy; test: Hepatectomy model (liver regeneration); format: in vivo, C57BL/6J mice
Method: Male C57BL/6J mice underwent a partial hepatectomy through a midline incision after general anesthesia with isoflourane^33. Free or conjugated TNP-470 (30 mg/kg) were given s.c. every other day for 8 days beginning on the day of surgery according to the scheme described in FIG. 4a. Alternatively, the doses given were 60 mg/kg the day of surgery and 4 days later or 120 mg/kg once on the day of the partial hepatectomy. The liver was harvested on the 8th day, weighed and analyzed by histology.
This non-neoplastic model is a relatively fast (8 days) in vivo angiogenesis-dependent process^33. We employed the hepatectomy model to compare the endothelial cell inhibitory activity of free and conjugated TNP-470, because liver regeneration post hepatectomy is angiogenesis-dependent, similar to tumor growth^33,34.

In the case of `CO[C@@H]1[C@H](OC(=O)NC(=O)CCl)CC[C@]2(CO2)[C@H]1[C@@]1(C)O[C@@H]1CC=C(C)C` [TNP-470], the “inhibition of bFGF-induced proliferation (cytostatic effect)” value (BCE cells) is reported as “inhibited bFGF-induced proliferation”, the “induction of weight loss” value (LLC) is reported as “did” and the effect on outgrowth (chick aortic ring) is reported as “completely prevented outgrowth”. For the same molecule, the VEGFR-2 phosphorylation (VEGFR-2) was “inhibit VEGFR-2 phosphorylation” and the “effect on normal development (weight gain)” value (Early mouse development) was “inhibited growth, by inhibiting weight gain”.

For `COc1cccc2c1C(=O)c1c(O)c3c(c(O)c1C2=O)C[C@@](O)(C(=O)CO)C[C@@H]3O[C@H]1C[C@H](N)[C@H](O)[C@H](C)O1` [doxorubicin], the “t1/2α (in words)” value [1] is listed as “few minutes”.

“Avastin: recombinant humanized antibody to Vascular Endothelial Growth Factor (VEGF), Genentech” gave a TIC (human melanoma (A2058)) of 0.47.

In the case of “N-(2-lydroxypropyl)methacrylamide (HPMA) copolymer-TNP-470 conjugate [HPMA copolymer-TNP-470]”, the “T/C values for the conjugate (summary)” value (A2058 human melanoma) is reported as 0.12-0.14, the TIC (human melanoma (A2058)) is reported as 029 and the “inhibition of liver regeneration” value ([2]; 60 mg/kg every four days) is reported as “had an equivalent effect as the 30 mg/kg q.o.d. dosing schedule”. The “inhibition of liver regeneration” value ([2]; single injection of 120 mg/kg at the day of hepatectomy) was “had an equivalent effect as the 30 mg/kg q.o.d. dosing schedule”, the “inhibition of bFGF-induced proliferation (cytostatic effect)” value (BCE cells) was “inhibited bFGF-induced proliferation” and the “effect on vascular sprouts” value (chick aortic ring; 50 pg/ml) was “reduced the number and length of vascular sprouts”. For the same molecule, the effect on outgrowth (chick aortic ring) was “completely prevented outgrowth” and the VEGFR-2 phosphorylation (VEGFR-2) was “inhibit VEGFR-2 phosphorylation”.
